Test results published in patent US11357840B2, “Methods and compositions for reducing growth, migration and invasiveness of brain cancer stem cells and improving survival of patients with brain tumors” (HYPERSTEM SA, priority 2014, dated 2022).
No end group written: not given here. *: point of attachment. Boc = CC(C)(C)OC(=O)*; For = O=C*

What was measured:
[1] = system: growth factor independent (GFI) hGBM TPCs; assay: Matrigel invasion assay, GFI TPCs; type: cell-based, human
Description: Invasion Assays—Matrigel Invasion Assays
An Invasion Assay is an in vitro system to study invasion capability of malignant and normal cells. Specific applications include assessment of the metastatic potential of tumor cells, inhibition of metastasis by extracellular matrix components or antineoplastic drugs, altered expression of cell surface proteins, or matrix metalloproteinases in metastatic cells; and invasion of normal cells such as embryonic stem cells, cytotrophoblasts, endothelial cells, and fibroblasts.
According to one embodiment, the following Matrigel invasion assay protocol is one example of an invasion assay. A coating buffer is prepared and a Matrigel Matrix aliquot is thawed at 4° C. Then, a coating solution is prepared by mixing the Matrigel Matrix with the coating buffer. A number of permeable supports are transferred into the wells of a 24-well plate and 100 ul of the diluted Matrigel is put into each well of the 24-well plate. The plate is then incubated with the coated permeable support at 37° C. for 2 h for gelling. Cells are cultured and prepared for the invasion assay, for example, growth factor dependent hGBM tumor-propagating cells with stem-like characteristic (GFD TPCs) are pretreated with saturating concentrations of recombinant Wnt5a protein (GFD+R5); lentiviral-mediated over-expression GFD cells (GFD+LV5); growth factor independent (GFI) TPCs are treated with saturating concentrations of a Wnt5a-blocking antibody (AbW5) or of a recombinant Wnt3a protein (R3) or of a recombinant secreted frizzled-related protein 1 (SFRP1), or GFI TPCs exposed to Wnt5a-derived peptides termed Box5 (SEQ ID NO: 1), Peptide A (SEQ ID NO: 2) and Peptide B (SEQ ID NO: 3) Cell suspensions are prepared in culture medium containing 5×10^4 cells/mL for the 24 well invasion chambers. An aliquot of 0.5 mL of cell suspension (2.5×10^4 cells) is then added to each 24 well invasion chamber. A chemoattractant is added to the wells of the plate (such as fibronectin as an adhesive substrate). The Cell invasion chambers are then incubated overnight in a humidified tissue culture incubator at 37° C., 5% CO2 atmosphere. The noninvaded cells on the top of the Matrigel coated permeable support are scraped off with a cotton swab. Then the permeable supports from 24-well plates are removed and stained with a cell staining solution and the invaded cells are counted under a light microscope.

4T1 breast cancer cells = conditions: in vitro; Safholm et al. 2008; cited from earlier work
[2] = system: hGBM TPC-derived tumors (GFI / GFD TPCs); assay: Orthotopic implantation of luciferase-tagged TPCs into SCID mice; type: in vivo, mouse (SCID); conditions: for tumor growth (luc-TPC signal, time course): GFI cells treated in culture prior to transplantation (pre-treatment), SCID mice, FIG. 18c; for tumor growth (luc-TPC signals, time course): co-injection (co-treatment) with either GFD or GFI TPCs, FIGS. 18e and 18f; for tumor spread through the brain parenchyma (luciferase immunolabeling): luc-GFI pre-treated vs untreated GFI TPCs, FIG. 18d
Description: Evaluation of Tumorigenic Ability and Invasiveness In Vivo by Orthotopic Implantation
Tumorigenicity was determined by injecting tumor cells into immunodeprived adult severe combined immunodeficiency (SCID) mice. (Galli et al., Cancer Res. 2004, 65:7011-7021). Tumor cells, for example, GFI TPCs, GFD TPCs, GFI TPCs pretreated with Box5 (SEQ ID NO: 1), GFI TPCs pretreated with PeptideA (SEQ ID NO: 2) were injected into SCID mice orthotopically to evaluate the tumorigenic ability and invasiveness in vivo. Also, GFD or GFI TPCs and Wnt5a-blocking protein (AbWt), alone or in combination with BMP4 (B4), Box5 (SEQ ID NO: 1) and PeptideA (SEQ ID NO: 2) were co-injected into the SCID mice.
Mice were sacrificed at different times. Serial histological reconstruction of mouse brain sections were immunolabeled for luciferase for evaluation.
Results from in vivo experiments were all subjected to statistical analysis. Survival curves were estimated using the Kaplan-Meier method.

GFI or GFD TPCs = assay: Growth kinetics (expansion) of TPCs; type: cell-based, human; conditions: FIG. 16g
melanoma cells = conditions: Jenei et al. 2009; cited from earlier work
[3] = system: growth factor dependent hGBM TPCs (GFD TPCs); assay: Matrigel invasion assay, GFD TPCs; type: cell-based, human; conditions: GFD cells treated with saturating concentrations (GFD+R5); FIG. 16a
Description: According to one embodiment, the following Matrigel invasion assay protocol is one example of an invasion assay. A coating buffer is prepared and a Matrigel Matrix aliquot is thawed at 4° C. Then, a coating solution is prepared by mixing the Matrigel Matrix with the coating buffer. A number of permeable supports are transferred into the wells of a 24-well plate and 100 ul of the diluted Matrigel is put into each well of the 24-well plate. The plate is then incubated with the coated permeable support at 37° C. for 2 h for gelling. […] Then the permeable supports from 24-well plates are removed and stained with a cell staining solution and the invaded cells are counted under a light microscope. […]

[4] = GFI TPCs exposed to Wnt5a-derived peptides, FIGS. 16c and 16d
[5] = saturating concentrations, FIG. 16b

Question: With “Leu-Glu-Gly-Asp-Met (LEGDM) [Peptide B, pentapeptide LEGDM, peptide derivative of Box5]” as the molecule, how does the “invasiveness of GFI TPCs” value [1, 4] read?
Answer: decreased the invasiveness of GFI TPCs in a dose-dependent fashion

Question: For For-MDGCEL [Foxy-5, reference compound], which “apoptosis or proliferation of 4T1 breast cancer cells” value (4T1 breast cancer cells) is on record?
Answer: without affecting

Question: And the “migration and invasion of 4T1 breast cancer cells” value (4T1 breast cancer cells)?
Answer: impaired migration and invasion

Question: For “LECGDM [Peptide A, hexapeptide LECGDM, peptide derivative of Box5]”, which “tumor growth (luc-TPC signal, time course)” value [2] is on record?
Answer: tumor growth is decreased

Question: And the “tumor growth (luc-TPC signals, time course)” value [2]?
Answer: inhibited

Question: What about the “tumor spread through the brain parenchyma (luciferase immunolabeling)” value [2] of the same molecule?
Answer: spread through the brain parenchyma less

Question: And the “ability of GFI or GFD TPCs to expand (slope of the growth curves)” value (from here on “ability … (slope of the growth curves)”) (GFI or GFD TPCs)?
Answer: negligible effects

Question: And the “invasiveness of GFI TPCs” value [1, 4]?
Answer: decreased the invasiveness of GFI TPCs in a dose-dependent fashion

Question: Which “antagonism of Wnt5a-mediated migration and invasion of melanoma cells” value (melanoma cells) does the source give for “t-butoxycarbonyl-Met-Asp-Gly-Cys-Glu-Leu (Boc-MDGCEL) [Box5, Wnt5a-derived hexapeptide MDGCEL, antagonist of Wnt5a, modified from Foxy-5, reference compound]” here?
Answer: potent, selective antagonist

Question: And the “tumor growth (luc-TPC signal, time course)” value [2]?
Answer: tumor growth is decreased

Question: What about the “tumor growth (luc-TPC signals, time course)” value [2] of the same molecule?
Answer: inhibited

Question: What about the “tumor spread through the brain parenchyma (luciferase immunolabeling)” value [2] of the same molecule?
Answer: spread through the brain parenchyma less

Question: What about the “ability … (slope of the growth curves)” value (GFI or GFD TPCs) of the same molecule?
Answer: negligible effects

Question: And the “invasiveness of GFI TPCs” value [1, 4]?
Answer: decreased the invasiveness of GFI TPCs in a dose-dependent fashion

B1: recombinant Wnt3a protein: recombinant Wnt3a protein (R&D Systems) (protein, UniProt P56704 19-352, looked up)
Protein Wnt-3a: SYPIWWSLAVGPQYSSLGSQPILCASIPGLVPKQLRFCRNYVEIMPSVAEGIKIGIQECQHQFRGRRWNCTTVHDSLAIFGPVLDKATRESAFVHAIASAGVAFAVTRSCAEGTAAICGCSSRHQGSPGKGWKWGGCSEDIEFGGMVSREFADARENRPDARSAMNRHNNEAGRQAIASHMHLKCKCHGLSGSCEVKTCWWSQPDFRAIGDFLKDKYDSASEMVVEKHRESRGWVETLRPRYTYFKVPTERDLVYYEASPNFCEPNPETGSFGTRDRTCNVSSHGIDGCDLLCCGRGHNARAERRREKCRCVFHWCCYVSCQECTRVYDVHTCK
Question: Which “invasiveness of GFI TPCs” value [1, 5] does the source give for B1 here?
Answer: decreased the invasiveness

B2: recombinant Wnt5a protein: recombinant Wnt5a protein (protein)
chain: IIGAQPLCSQLAGLSQGQKKLCHLYQDHMQYIGEGAKTGIKECQYQFRHRRWNCSTVDNTSVFGRVMQIGSRETAFTYAVSAAGVVNAMSRACREGELSTCGCSRAARPKDLPRDWLWGGCGDNIDYGYRFAKEFVDARERERIHAKGSYESARILMNLHNNEAGRRTVYNLADVACKCHGVSGSCSLKTCWLQLADFRKVGDALKEKYDSAAAMRLNSRGKLVQVNSRFNSPTTQDLVYIDPSPDYCVRNESTGSLGTQGRLCNKTSEGMDGCELMCCGRGYDQFKTVQTERCHCKFHWCCYVKCKKCTEIVDQFVCK
Question: For B2, which “apoptosis or proliferation of 4T1 breast cancer cells” value (4T1 breast cancer cells) is on record?
Answer: without affecting

Question: And the “migration and invasion of 4T1 breast cancer cells” value (4T1 breast cancer cells)?
Answer: impaired migration and invasion

Question: And the “cell migration of GFD cells” value [3]?
Answer: increase in cell migration

B3: SFRP1: recombinant secreted frizzled-related protein 1, an endogenous Wnt antagonist (protein, UniProt Q8N474 32-314, looked up)
Secreted frizzled-related …: SEYDYVSFQSDIGPYQSGRFYTKPPQCVDIPADLRLCHNVGYKKMVLPNLLEHETMAEVKQQASSWVPLLNKNCHAGTQVFLCSLFAPVCLDRPIYPCRWLCEAVRDSCEPVMQFFGFYWPEMLKCDKFPEGDVCIAMTPPNATEASKPQGTTVCPPCDNELKSEAIIEHLCASEFALRMKIKEVKKENGDKKIVPKKKKPLKLGPIKKKDLKKLVLYLKNGADCPCHQLDNLSHHFLIMGRKVKSQYLLTAIHKWDKKNKEFKNFMKKMKNHECPTFQSVFK
Question: For B3, which “invasiveness of GFI TPCs” value [1, 5] is on record?
Answer: decreased the invasiveness

B4: BMP4: bone morphogenetic protein 4, positive control (protein, UniProt P12644 293-408, looked up)
Bone morphogenetic protein 4: SPKHHSQRARKKNKNCRRHSLYVDFSDVGWNDWIVAPPGYQAFYCHGDCPFPLADHLNSTNHAIVQTLVNSVNSSIPKACCVPTELSAISMLYLDEYDKVVLKNYQEMVVEGCGCR
Question: With B4 as the molecule, how does the “ability … (slope of the growth curves)” value (GFI or GFD TPCs) read?
Answer: significantly triggered negative deviations from the growth kinetics
